Values belong to the compound of their own block, whether it stands above or below them.
How the values were obtained:
Arabidopsis guard cells = details: loaded into Arabidopsis guard cells; cited from earlier work
[1] = test system: wild-type leaf epidermis stomata; experiment: CO2-induced stomatal movements in leaf epidermis treated with carbonic anhydrase inhibitor; format: cell-based, Arabidopsis thaliana; details: wild-type leaf epidermis treated for 30 min
[2] = test system: wild-type Arabidopsis thaliana plants; experiment: Norflurazon bleaching of leaves and CO2-induced stomatal movements in albino leaves; format: in vivo
Description: To further analyze whether intact photosynthesis is required for CO2 regulation of stomatal movements, another approach was carried out.
FIG. 13A illustrates an image of chlorophyll-deficient albino wild-type leaves devoid of functional chloroplasts were generated by application of the carotenoid biosynthesis inhibitor norflurazon. The absence of chlorophyll in albino guard cells compared to wild-type was visualized by confocal microscopy (FIG. 13B graphically illustrates data) and quantified by image analysis of the chlorophyll fluorescence intensity (FIG. 13C graphically illustrates data) (n=3, 12 stomata/sample.). FIG. 13D graphically illustrates data showing CO2-induced stomatal movements in albino versus control plant leaves (n=7, 50 stomata/sample). Error bars depict means±s.e.m.

[3] = test system: ca1ca4 leaf epidermis stomata; experiment: abscisic acid-induced stomatal closing in leaf epidermis; format: cell-based, Arabidopsis thaliana
Description: FIG. 10A illustrates stomata in ca1ca4 double mutant leaves close in response to abscisic acid; n=3 experiments, 30 stomata/experiment and condition. Error bars depict means±s.e.m. FIG. 10B illustrates CO2-induced stomatal movements are impaired in ca1ca4 double mutant leaves and in wild-type leaf epidermis treated with the carbonic anhydrase inhibitor 6-ethoxy-2-benzothiazolesulphonamide (EZA) (n=6, 30 stomata/sample); see e.g., Becker et al., 2007.
To determine whether the impaired CO2 responses in intact leaves (see FIG. 9C, FIG. 9D, FIG. 9E) are linked to stomatal movements, CO2 responses were analyzed in leaf epidermis. CO2-induced stomatal movements were impaired in ca1ca4 as compared to wild-type, as illustrated in FIG. 10B. Furthermore, when wild-type leaf epidermis were treated for 30 min with the membrane-permeable CA inhibitor EZA (see, e.g., Becker et al., 2007), CO2-induced stomatal opening and closing were inhibited, which correlates with a role for carbonic anhydrases in CO2 sensing, rather than a long-term developmental effect of CA gene disruption on the rapid CO2 response, as illustrated in FIG. 10B.

Structure (SMILES): O=C(O)CN(CC(=O)O)c1ccccc1OCCOc1ccccc1N(CC(=O)O)CC(=O)O [BAPTA]
- spontaneous calcium transients in guard cells (Arabidopsis guard cells): effectively inhibits

- CO2-induced stomatal opening and closing [1]: inhibited
Structure (SMILES): CCOc1ccc2nc(S(N)(=O)=O)sc2c1 [EZA, 6-ethoxy-2-benzothiazolesulphonamide]

Structure (SMILES): CNc1cnn(-c2cccc(C(F)(F)F)c2)c(=O)c1Cl [Norflurazon]
- stomatal CO2 response to both high and low [CO2] in intact leaves ([2]; albino leaves without functional chloroplasts): not affected
- leaf phenotype of newly emerging leaves ([2]; watering 3 to 4 week-old wild-type plants): albino chlorophyll-deficient wild-type leaves devoid of functional chloroplasts

Structure (SMILES): CC1=CC(=O)CC(C)(C)[C@@]1(O)/C=C/C(C)=C\C(=O)O [abscisic acid]
- ABA-induced stomatal closing [3]: completely functional

Reference: patent US10378021B2, “Plant CO2 sensors, nucleic acids encoding them, and methods for making and using them” (The Regents of the University of California, priority 2007, dated 2019)
